Assay results published in patent US8710097B2, “Flavonoid dimers and methods of making and using such” (The Hong Kong Polytechnic University, priority 2006, dated 2014).
Values after ≈ are worked out from the molar mass of the structure shown. Like-named read-outs stand apart in the source and are kept apart here.

What was measured:
[1] = test system: MDA435/LCC6 MDR cells; assay: cells; conditions: for IC60 of doxorubicin with modulator / reduction of IC60 of doxorubicin, RF: 5 μM dimer, FIG. 5
Experimental: (§1) MDA435/LCC6 and P388 (both parent and MDR subtype) were maintained in DMEM and RPMI 1640 culture medium supplemented with 10% FBS, respectively. RPMI 1640 media also contained 100 units/ml penicillin and 100 μg/ml streptomycin. Cells were cultured at 37° C. in a humidified atmosphere with 5% CO2. A solution of 0.05% trypsin-EDTA was used to detach the MDA435/LCC6 (both wild type and MDR subtype) cells.
(§2) Cell proliferation assay. MDA435/LCC6 and P388 (both parent and MDR subtype) cells were seeded at 2000 and 5000 cells per well, respectively, in 96-well plates. Varying concentrations of anticancer drugs (Doxorubicin, Daunorubicin, Vincristine, Vinblastine, taxol, Mitoxantrone) with or without the flavonoid dimers were added in a final volume of 200 μl and cells were grown for 4 and 3 days for MDA435/LCC6 and P388 (both parent and MDR subtype) cells, respectively. For MDA435/LCC6 (both parent and MDR subtype), the corresponding drugs were added after cell attachment (24 hr incubation). To measure cell proliferation, the cell Titer 960 Aqueous Assay (Promega) was used according to the manufacturer's instructions. Briefly, MTS (2 mg/ml) and PMS (0.92 mg/ml) were mixed in a ratio of 20:1. 30 μl MTS/PMS mixture was added into each well and incubated for 2 hours at 37° C. Optical absorbance at 490 nm was then recorded using an ELISA microtiter plate reader (Bio-Rad). Each experiment was done at least in triplicate and repeated twice. Cytotoxicity of the anticancer drugs was expressed as the fraction of the cells survived relative to the untreated DMSO (0.05%) solvent controls.
MDA435/LCC6 is an estrogen-independent human breast cancer cell line. Its MDR subtype (MDA435/LCC6 MDR) was generated by transducing a retroviral vector directing the constitutive expression of the human MDR1 cDNA, producing a cell line with a classical MDR1 resistance pattern (MDA435/LCC6 and MDA435/LCC6MDR1: ascites models of human breast cancer. Br J Cancer 1996, 73, 154-161). The ability of the apigenin dimers of this invention to reverse taxol resistance in MDA435/LCC6 MDR cells were tested. […] Apigenin monomers 10a and 10b at 10 μM were used as the negative controls.

[2] = test system: P388/ADR cells; assay: Doxorubicin accumulation; type: cell-based, murine; conditions: monomer 10b at double concentration of the dimers, FIG. 11A
Experimental: (§3) For P388 (both parent and MDR subtype) cells, 1 ml (10^5 cells) confluent cells were aliquot into Eppendorf tube and pre-incubated with flavone dimers for 30 min at 37° C. Doxorubicin (final concentration of 10 μM) was then added and incubated for 2 h at 37° C. at a final concentration of 10 μM. The cell pellets were washed 3 times with cold PBS by using an Eppendorf micro-centrifuge and lysed with 0.3N HCL in 50% ethanol, and sonicated for 30s. After centrifugation at 10000 rpm/min for 3 min, the supernatant was saved. The fluorescence of doxorubicin was measured using a spectrofluorometer (λexcite=470 nm, λemit=585 nm).

[3] = test system: pentamidine-resistant L. enriettii LePentR50 promastigotes; assay: microbe, parasite or virus in culture; conditions: for IC50: 72 hrs
Experimental: (§4) Cell lines and Cell Culture. Promastigotes of Leishmania enriettii (LePentR50, Le wild type, LeMDR1 −/− and LeMDR1-overexpressed LeV160 mutants) and Leishmania donovani (LdAG83, Ld2001 and Ld39) were employed in this study. The former is a natural infective strain of guinea pig and the latter is a clinical strain, which may cause visceral leishmaniasis in human. Both strains were cultured in Schneider's Drosophila Medium (Invitrogen), pH 6.9 supplemented with 10% (v/v) heat inactivated fetal calf serum (Hyclone) with 4 mM glutamine (Sigma) and 25 μg/mL gentamicin solution (Invitrogen), at 27° C. for 4 days (Cloning and functional analysis of an extrachromosomally amplified multidrug resistance-like gene in Leishmania enriettii. Mol. Biochem. Parasitol 1993, 60, 195-208).
Promastigotes of LeV160 were culture in the presence of 160 μg/mL vinblastine. No pentamidine and vinblastine (Sigma) was added to the Le wild type and LeMDR1 −/− mutant.
(§5) The viability of promastigotes was determined by the Cell Titer 96® Aqueous Assay (Promega) that employs a tetrazolium compound (MTS) and electron coupling reagent, phenazine methosulfate (PMS). Promastigotes were seeded into 96-well flat bottom microtiter plate at 1×10^5 cells per well in a final volume of 100 μL medium. To determine the cytotoxic effects of flavonoid dimers to the parasites, various concentrations of flavonoid dimers were added to the promastigotes. To determine the reversal effects of flavonoid dimers with different spacer lengths, various concentrations of antileishmanial drugs, one of pentamidine or SSG, vinblastine and puromycin was added to the wells with or without flavonoid dimers. The parasites were incubated at 27° C. for 72 hrs. Each concentration of antileishmanials with or without the flavonoid dimers was tested in triplicates in each experiment. A 2 mg/mL MTS and 0.92 mg/mL PMS were mixed at a ratio of 20:1 (MTS: PMS). After 72-hr incubation, 10 μL of MTS:PMS mixture was added into each well of microtiter plate. The plate was then incubated at 27° C. for 4 hrs for color development. After 4 hrs of incubation, the OD values were determined at 490 nm using automatic microtiter plate reader (Bio-Rad).

[4] = test system: wild type L. donovani LdAG83 promastigotes; assay: Leishmania cell viability (MTS) assay; type: cell-based, Leishmania donovani; conditions: for IC50: read-out: IC50(μM) of synthetic flavonoid, LdAG83
Experimental: as §4, with “195-208). […]” for “195-208).”
as §5

[5] = test system: SSG-resistant L. donovani Ld39 promastigotes; assay: microbe, parasite or virus in culture; type: cell-based, Leishmania donovani; conditions: for SSG resistance modulating activity: FIG. 14B; for IC50: read-out: IC50(μM) of synthetic flavonoid, Ld39
Experimental: as §4, with “195-208). […]” for “195-208).”
as §5

[6] = test system: LeMDR1 knockout (LeMDR1 −/−) L. enriettii; assay: Leishmania cell viability (MTS) assay; type: cell-based, Leishmania enriettii; conditions: LeMDR1 −/−
Excerpt: (§6) Cell lines and Cell Culture.

[7] = test system: P388/ADR cells; assay: cells
Experimental: as §1, §2

[8] = test system: tested MDR cell lines (drug resistant breast cancer and leukemia cells); type: cell-based; conditions: tested MDR cell lines; 10 μM
Excerpt: (§7) Cell proliferation assay.

[9] = test system: MDA435/LCC6 MDR cells; assay: Doxorubicin accumulation; type: cell-based, human; conditions: LCC6 MDR; apigenin dimers 10 μM; 20 μM doxorubicin, 2 h
Experimental: Doxorubicin accumulation. 2.5 ml (10^5 cells/ml) MDA435/LCC6 (both parent and MDR subtype) cells were seeded in each well of 6-well plates. At confluence, culture medium was removed. 2 ml of fresh DMEM with modulators was added and cells were incubated for 30 min at 37° C. Doxorubicin (final concentration of 20 μM) was then added and incubated for 2 h at 37° C. The cells were then harvested by trypsinization.
as §3
In order to understand whether the modulating activity for various anticancer drugs by different dimers is due to their different ability to modulate P-gp mediated drug efflux, their effects on the accumulation of doxorubicin in both MDA435/LCC6 sensitive and resistant cells were investigated. Doxorubicin was a fluorescent drug substrate of P-gp and was used in this experiment to monitor the P-gp mediated drug efflux. Accumulation of doxorubicin in these cells was determined in the presence or absence of apigenin dimers (10 μM) and monomer (20 μM). Verapamil was used as a positive control.

[10] = test system: LeMDR1 overexpressed L. enriettii (LeV160); assay: Leishmania cell viability (MTS) assay; type: cell-based, Leishmania enriettii; conditions: for IC50: Leishmania enriettii
Excerpt: as §6

[11] = test system: MDA435/LCC6 cells; assay: Cell proliferation (MTS) assay, parental sensitive cells; type: cell-based; conditions: Homo sapiens; LCC6; drug alone; read-out: IC50 (nM) of anticancer drug alone
Excerpt: as §7

[12] = test system: P388 cells; assay: as above; type: cell-based, murine; conditions: Mus musculus; P388; drug alone; read-out: IC50 (nM) of anticancer drug alone
Excerpt: as §7

[13] = Leishmania enriettii, 72 h, read-out: IC50(μM) of synthetic flavonoid, LePentR50, cytotoxicity of compound alone
[14] = cytotoxicity of compound alone, 72 hrs

O=c1cc(-c2ccc(OCCOCCOc3ccc(-c4cc(=O)c5c(O)cc(O)cc5o4)cc3)cc2)oc2cc(O)cc(O)c12 [Compound 9b, 1,7-Bis[4′-((5,7-dihydroxy)-4H-chromen-4-on-2-yl)phenyl]-1,4,7-trioxaheptane]
IC60 of doxorubicin with modulator ([1]; MDA435/LCC6 MDR): 1.3 µM | reduction of IC60 of doxorubicin, RF ([1]; MDA435/LCC6 MDR): ~3.1 RF | activity on doxorubicin accumulation [2]: comparable activity to 9d | IC50 [3, 13]: > 200 µM | IC50 ([4]; Leishmania donovani, 72 h): > 200 µM | SSG resistance modulating activity ([5]; Ld39, dimers at 6 μM): did not show substantial SSG resistance modulating activity | IC50 ([5]; Leishmania donovani, 72 h): > 200 µM | pentamidine sensitization [6]: 2.0 fold

O=c1cc(-c2ccc(OCCOCCOCCO)cc2)oc2cc(O)cc(O)c12 [Compound 10a, 9-[4′-((5,7-dihydroxy)-4H-chromen-4-on-2-yl)phenyl]-3,6,9,-trioxanonan-1-ol]
doxorubicin resistance reversal ([1]; MDA435/LCC6 MDR, monomers): ineffective reversers | reversing effect on taxol resistance ([1]; MDA435/LCC6 MDR, monomers at 10 μM): little reversing effect | modulatory activity on doxorubicin and daunorubicin cytotoxicity [7]: little modulatory activity | anticancer activity of monomers alone [8]: no anticancer activity | IC50 ([3]; read-out: IC50(μM) of synthetic flavonoid, LePentR50, cytotoxicity of compound alone): > 200 µM | IC50 [4, 14]: > 200 µM | SSG resistance modulating activity ([5]; Ld39, 12 μM): did not give any significant modulating activity | IC50 [5, 14]: > 200 µM

O=c1cc(-c2ccc(OCCOCCOCCOc3ccc(-c4cc(=O)c5c(O)cc(O)cc5o4)cc3)cc2)oc2cc(O)cc(O)c12 [Compound 9c, 1,10-Bis[4′-((5,7-dihydroxy)-4H-chromen-4-on-2-yl)phenyl]-1,4,7,10-tetraoxadecane]
IC60 of doxorubicin with modulator ([1]; MDA435/LCC6 MDR): 1.3 µM | reduction of IC60 of doxorubicin, RF ([1]; MDA435/LCC6 MDR): about 3.6 RF | enhancement of doxorubicin accumulation, folds of control [9]: 4.5 folds | activity on doxorubicin accumulation [2]: comparable activity to 9d | pentamidine sensitization ([3]; LePentR50, FIG. 18A): about 2.7 fold | IC50 [3, 13]: > 200 µM | IC50 ([4]; Leishmania donovani, 72 h): 8 ± 0.3 µM | modulatory effect on SSG sensitivity ([4]; SSG-sensitive wild type LdAG83, FIG. 14D): no modulatory effect | reduction of SSG resistance level ([5]; Ld39, 4 μM, FIGS. 17A and 17B): back to the level of the sensitive strain | SSG sensitization ([5]; Ld39, FIG. 18B): 3.1 fold | IC50 ([5]; Leishmania donovani, 72 h): 11 ± 0.7 µM | pentamidine sensitization [6]: 3.8 fold | decrease of IC50 of pentamidine ([10]; LeV160): about 1.8 fold

CC[C@]1(O)C[C@@H]2CN(CCc3c([nH]c4ccccc34)[C@@](C(=O)OC)(c3cc4c(cc3OC)N(C)[C@H]3[C@@](O)(C(=O)OC)[C@H](OC(C)=O)[C@]5(CC)C=CCN6CC[C@]43[C@@H]65)C2)C1 [Vinblastine]
IC50 ([1]; Homo sapiens, 96 h, read-out: IC50 (nM) of anticancer drug alone, LCC6 MDR, drug alone, no modulator): 4.8 nM | RF (relative fold) ([1]; LCC6 MDR, drug alone (reference)): 1 | IC50 [11]: 0.34 nM | IC50 ([7]; Mus musculus, P388/ADR, 72 h, read-out: IC50 (nM) of anticancer drug alone): 95 nM | RF (relative fold) ([7]; P388/ADR, drug alone (reference)): 1 | IC50 [12]: 4.1 nM | IC50 ([10]; read-out: IC50 of vinblastine (μg/ml), no modulator): 167 ± 3.6 µg/mL (≈ 206 µM)

O=c1cc(-c2ccc(OCCOCCOCCOCCOCCOCCOCCOCCOc3ccc(-c4cc(=O)c5c(O)cc(O)cc5o4)cc3)cc2)oc2cc(O)cc(O)c12 [Compound 9h, 1,25-Bis[4′-((5,7-dihydroxy)-4H-chromen-4-on-2-yl)phenyl]-1,4,7,10,13,16,19,22,25-nonaoxapentacosane]
doxorubicin sensitization ([1]; MDA435/LCC6 MDR, dimers): very little or no doxorubicin sensitization | reversing effect on taxol resistance ([1]; MDA435/LCC6 MDR, dimers at 5 μM): little or no reversing effect | IC50 ([4]; Leishmania donovani, 72 h): 12 ± 0.2 µM | IC50 ([5]; Leishmania donovani, 72 h): 14 ± 0.1 µM | pentamidine sensitization [6]: 2.3 fold

COc1ccc(C[C@H](N)C(=O)N[C@H]2[C@@H](O)[C@H](n3cnc4c(N(C)C)ncnc43)O[C@@H]2CO)cc1 [puromycin]
IC50 ([10]; read-out: IC50 of puromycin (μg/ml), no modulator): 16 ± 1 µg/mL (≈ 33.9 µM)
